Assay results: US20210255193A1, “LYSINE REACTIVE PROBES AND USES THEREOF” (The Scripps Research Institute, priority 2017, published 2021)

Experiments:
Assay in all cases: competitive isoTOP-ABPP
Assay type in all cases: binding
[1] = target: T1, AP1G1 AP-1 complex subunit gamma-1 (Homo sapiens, UniProt O43747); conditions: for isoTOP-ABPP ratio (R) at liganded lysine O43747_K214: 50 uM, in vitro, sol, 231
T1 construct: isoTOP-ABPP experiments performed in cell lysates (in vitro); endogenous in cells; host or cells: MDA-MB-231 soluble lysate
T1 sequence (O43747 1-822): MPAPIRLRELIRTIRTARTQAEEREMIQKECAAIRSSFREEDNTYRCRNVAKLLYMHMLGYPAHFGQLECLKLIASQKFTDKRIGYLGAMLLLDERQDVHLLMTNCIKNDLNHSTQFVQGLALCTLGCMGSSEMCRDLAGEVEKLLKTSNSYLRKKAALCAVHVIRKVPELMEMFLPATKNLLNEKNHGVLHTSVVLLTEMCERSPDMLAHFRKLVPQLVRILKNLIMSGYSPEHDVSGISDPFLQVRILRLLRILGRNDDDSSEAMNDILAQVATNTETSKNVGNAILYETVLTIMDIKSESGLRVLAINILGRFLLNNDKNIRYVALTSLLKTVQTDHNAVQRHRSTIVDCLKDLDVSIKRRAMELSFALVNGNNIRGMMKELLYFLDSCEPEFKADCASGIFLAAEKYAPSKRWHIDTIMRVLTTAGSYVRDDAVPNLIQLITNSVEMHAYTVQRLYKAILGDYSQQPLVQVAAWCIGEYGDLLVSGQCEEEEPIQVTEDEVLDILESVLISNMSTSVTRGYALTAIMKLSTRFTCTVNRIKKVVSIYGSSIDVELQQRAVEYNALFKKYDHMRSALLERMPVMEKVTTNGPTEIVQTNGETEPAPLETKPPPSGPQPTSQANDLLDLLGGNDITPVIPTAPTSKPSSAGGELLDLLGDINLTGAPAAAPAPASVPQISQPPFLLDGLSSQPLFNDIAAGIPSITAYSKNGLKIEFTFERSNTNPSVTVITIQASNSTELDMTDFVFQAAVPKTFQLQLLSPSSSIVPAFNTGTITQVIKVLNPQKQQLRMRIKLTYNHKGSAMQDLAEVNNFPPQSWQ
Method in brief: (§1)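 Fragments at 50 μM (activated esters) or 100 μM (guanidinylating agents) were incubated with 0.5 ml lysate before probe labeling. After 0.1 mM STP-alkyne for 1 h, samples were clicked to isotopically distinct TEV tags, and R taken as DMSO-over-compound MS1 peak-area ratio.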

[2] = target: T2, UCHL5 Ubiquitin carboxyl-terminal hydrolase isozyme L5 (Homo sapiens, UniProt Q9Y5K5); conditions: for isoTOP-ABPP ratio (R) at liganded lysine Q9Y5K5_K323: 50 uM, in vitro, sol, 231
T2 construct: endogenous in cells; host or cells: MDA-MB-231 (soluble fraction of lysate)
T2 sequence (Q9Y5K5 1-329): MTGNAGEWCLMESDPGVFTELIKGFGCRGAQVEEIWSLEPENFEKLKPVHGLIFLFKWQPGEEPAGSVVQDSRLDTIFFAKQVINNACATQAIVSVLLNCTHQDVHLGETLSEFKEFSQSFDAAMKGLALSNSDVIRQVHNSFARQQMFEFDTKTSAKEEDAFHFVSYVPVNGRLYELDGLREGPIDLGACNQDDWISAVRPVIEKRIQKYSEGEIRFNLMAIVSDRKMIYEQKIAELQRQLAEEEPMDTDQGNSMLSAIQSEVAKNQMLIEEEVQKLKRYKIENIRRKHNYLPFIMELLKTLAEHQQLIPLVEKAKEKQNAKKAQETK
Method in brief: as §1

OLA1 Obg-like ATPase 1 = target: T3, OLA1 Obg-like ATPase 1 (Homo sapiens, UniProt Q9NTK5); conditions: for isoTOP-ABPP ratio (R) at liganded lysine Q9NTK5_K248: 50 uM, in vitro, sol, 231
T3 construct: endogenous in cells; host or cells: MDA-MB-231 (soluble fraction of lysate)
Method in brief: as §1

[3] = target: T4, ERAP1 Endoplasmic reticulum aminopeptidase 1 (Homo sapiens, UniProt Q9NZ08); conditions: for isoTOP-ABPP ratio (R) at liganded lysine Q9NZ08_K685: 50 uM, in vitro, sol, 231
T4 construct: endogenous in cells; host or cells: MDA-MB-231 lysate
T4 sequence (Q9NZ08 whole entry): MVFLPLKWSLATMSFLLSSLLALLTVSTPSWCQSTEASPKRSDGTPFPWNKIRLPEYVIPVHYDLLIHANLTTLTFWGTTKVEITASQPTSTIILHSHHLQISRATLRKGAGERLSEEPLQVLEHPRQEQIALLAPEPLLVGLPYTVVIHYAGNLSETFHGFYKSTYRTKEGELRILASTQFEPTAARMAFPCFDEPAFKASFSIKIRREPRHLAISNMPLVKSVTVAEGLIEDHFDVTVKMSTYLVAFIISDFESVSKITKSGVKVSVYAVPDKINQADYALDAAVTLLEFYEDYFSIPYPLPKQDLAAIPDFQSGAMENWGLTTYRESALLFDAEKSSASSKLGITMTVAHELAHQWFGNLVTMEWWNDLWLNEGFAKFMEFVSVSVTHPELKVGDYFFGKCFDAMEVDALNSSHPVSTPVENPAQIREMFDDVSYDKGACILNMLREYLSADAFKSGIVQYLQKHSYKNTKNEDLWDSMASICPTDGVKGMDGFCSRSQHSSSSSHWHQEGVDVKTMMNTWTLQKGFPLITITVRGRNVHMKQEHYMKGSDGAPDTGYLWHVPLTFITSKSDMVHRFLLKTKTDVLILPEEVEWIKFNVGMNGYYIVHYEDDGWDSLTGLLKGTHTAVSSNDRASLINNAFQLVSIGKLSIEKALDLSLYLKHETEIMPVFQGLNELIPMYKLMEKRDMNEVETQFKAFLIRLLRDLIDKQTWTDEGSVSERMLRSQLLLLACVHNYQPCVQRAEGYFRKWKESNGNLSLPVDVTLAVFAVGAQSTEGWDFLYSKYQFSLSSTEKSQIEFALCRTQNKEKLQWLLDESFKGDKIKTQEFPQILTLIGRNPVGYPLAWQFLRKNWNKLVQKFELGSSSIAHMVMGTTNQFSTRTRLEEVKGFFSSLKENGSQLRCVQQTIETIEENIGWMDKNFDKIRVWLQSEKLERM
Method in brief: as §1

SMILES | isoTOP-ABPP ratio (R) at liganded lysine O43747_K214 [1] | isoTOP-ABPP ratio (R) at liganded lysine Q9Y5K5_K323 [2] | isoTOP-ABPP ratio (R) at liganded lysine Q9NTK5_K248 (OLA1 Obg-like ATPase 1) | isoTOP-ABPP ratio (R) at liganded lysine Q9NZ08_K685 [3] | isoTOP-ABPP ratio, lysine O43747_K214 ([1]; 50 uM_231_sol_in vitro) | isoTOP-ABPP ratio, lysine Q9Y5K5_K323 ([2]; 50 uM_231_sol_in vitro) | isoTOP-ABPP ratio, lysine Q9NTK5_K248 (OLA1 Obg-like ATPase 1; 50 uM_231_sol_in vitro) | isoTOP-ABPP ratio, lysine Q9NZ08_K685 ([3]; 50 uM_231_sol_in vitro) | other results
O=C(Oc1ccc([N+](=O)[O-])cc1[N+](=O)[O-])c1ccc(Oc2ccccc2)cc1 [fragment 39, 2,4-Dinitrophenyl 4-phenoxybenzoate] | 0.8 | 0.9 | 0.9 | 1.0 |  |  |  |  | 
O=C(Oc1ccc([N+](=O)[O-])cc1[N+](=O)[O-])c1ccccc1Nc1cccc(C(F)(F)F)c1 [fragment 40, 2,4-Dinitrophenyl 2-((3-(trifluoromethyl)phenyl)amino)benzoate] | 0.9 | 1.0 | 0.9 | 1.1 |  |  |  |  | 
CC(C)(C)OC(=O)NCCCC(=O)Oc1ccc([N+](=O)[O-])cc1[N+](=O)[O-] [fragment 41, 2,4-Dinitrophenyl 4-((tert-butoxycarbonyl)amino)butanoate] | 1.0 | 1.0 | 1.0 | 1.3 |  |  |  |  | 
O=C(Oc1ccc([N+](=O)[O-])cc1[N+](=O)[O-])C(c1ccccc1)(c1ccccc1)c1ccccc1 [fragment 42, 2,4-Dinitrophenyl 2,2,2-triphenylacetate] | 0.8 | 1.0 | 1.0 | 1.0 |  |  |  |  | 
CC(=O)Oc1ccc([N+](=O)[O-])cc1[N+](=O)[O-] [fragment 43, 2,4-Dinitrophenyl acetate] | 1.1 | 1.0 | 1.0 | 1.1 |  |  |  |  | 
N#Cc1ccc(C(=O)Oc2ccc([N+](=O)[O-])cc2[N+](=O)[O-])cc1 [fragment 44, 2,4-Dinitrophenyl 4-cyanobenzoate] |  |  |  |  | 0.9 | 0.9 | 1.1 | 1.6 | 
O=C(CCc1ccc2c(c1)OCO2)Oc1ccc([N+](=O)[O-])cc1[N+](=O)[O-] [fragment 45, 2,4-Dinitrophenyl 3-(benzo[d][1,3]dioxol-5-yl)propanoate] |  |  |  |  | 1.2 | 1.5 | 1.0 | 1.3 | 
O=C(ON1C(=O)CCC1=O)c1cc(C(F)(F)F)cc(C(F)(F)F)c1 [fragment 46, 3,5-Bis(trifluoromethyl)benzoic acid NHS ester] |  |  |  |  | 1.0 | 1.0 | 1.2 | 2.1 | 
O=C(Oc1c(F)c(F)c(C(F)(F)F)c(F)c1F)c1cc(C(F)(F)F)cc(C(F)(F)F)c1 [fragment 47, 2,3,5,6-Tetrafluoro-4-(trifluoromethyl)phenyl 3,5-bis(trifluoromethyl)benzoate] |  |  |  |  | 0.8 | 1.4 | 1.2 | 1.3 | 
O=C(Oc1c(F)c(F)cc(F)c1F)c1cc(C(F)(F)F)cc(C(F)(F)F)c1 [fragment 48, 2,3,5,6-Tetrafluorophenyl 3,5-bis(trifluoromethyl)benzoate] |  |  |  |  | 0.8 | 0.9 | 1.0 | 1.5 | 
COC(=O)NC(=NC(=O)OCC1c2ccccc2-c2ccccc21)n1cccn1 [fragment 49, N-Methoxycarbonyl-N′-9-fluorenylmethoxycarbonyl-pyrazole-1-carboxamidine] |  |  |  |  |  |  |  |  | isoTOP-ABPP ratio, lysine O43747_K214 ([1]; 100 uM_231_sol_in vitro): 1.0; isoTOP-ABPP ratio, lysine Q9Y5K5_K323 ([2]; 100 uM_231_sol_in vitro): 9.0; isoTOP-ABPP ratio, lysine Q9NTK5_K248 (OLA1 Obg-like ATPase 1; 100 uM_231_sol_in vitro): 7.0; isoTOP-ABPP ratio, lysine Q9NZ08_K685 ([3]; 100 uM_231_sol_in vitro): 1.6
CC(C)(C)OC(=O)N=C(NC(=O)OC(C)(C)C)n1cccn1 [fragment 50, reference compound] |  |  |  |  |  |  |  |  | isoTOP-ABPP ratio, lysine O43747_K214 ([1]; 100 uM_231_sol_in vitro): 1.0; isoTOP-ABPP ratio, lysine Q9Y5K5_K323 ([2]; 100 uM_231_sol_in vitro): 2.2; isoTOP-ABPP ratio, lysine Q9NTK5_K248 (OLA1 Obg-like ATPase 1; 100 uM_231_sol_in vitro): 2.1; isoTOP-ABPP ratio, lysine Q9NZ08_K685 ([3]; 100 uM_231_sol_in vitro): 20.0
NC(=O)c1cc(C(F)(F)F)cc(C(F)(F)F)c1 [fragment 51, reference compound] |  |  |  |  | 0.9 | 1.0 | 0.9 | 0.9 | 
